Reference: patent publication US20110183958A1, “AZETIDINE DERIVATIVES AS INHIBITORS OF STEAROYL-COENZYME A DELTA-9 DESATURASE” (Merck Frosst Canada Ltd., priority 2008, published 2011)

Molecular target: T1, human SCD1 (hSCD-1) (Homo sapiens, UniProt O00767)
T1 construct: made in house; host or cells: baculovirus/Sf9
T1 sequence (O00767 1-359): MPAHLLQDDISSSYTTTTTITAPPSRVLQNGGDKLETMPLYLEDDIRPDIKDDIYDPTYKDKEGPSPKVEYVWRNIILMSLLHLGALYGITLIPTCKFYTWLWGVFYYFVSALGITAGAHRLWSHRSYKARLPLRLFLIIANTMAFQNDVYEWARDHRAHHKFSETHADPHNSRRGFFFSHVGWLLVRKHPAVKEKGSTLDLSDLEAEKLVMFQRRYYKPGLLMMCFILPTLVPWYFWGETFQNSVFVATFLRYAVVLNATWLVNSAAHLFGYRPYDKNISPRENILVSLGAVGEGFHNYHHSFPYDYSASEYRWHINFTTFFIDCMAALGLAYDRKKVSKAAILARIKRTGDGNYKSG
Experiment: SCD enzyme activity assay with reconstituted human SCD1 (hSCD-1)
Format: biochemical
Protocol: I. SCD Enzyme Activity Assay:
The potency of compounds of formula I against the stearoyl-CoA desaturase was determined by measuring the conversion of radiolabeled stearoyl-CoA to oleoyl-CoA using rat liver microsome or human SCD1 (hSCD-1) following previously published procedures with some modifications (Joshi, et al., J. Lipid Res., 18: 32-36 (1977); Talamo, et al., Anal. Biochem, 29: 300-304 (1969)). Liver microsome was prepared from male Wistar or Sprague Dawley rats on a high carbohydrate diet for 3 days (LabDiet # 5803, Purina). The livers were homogenized (1:10 w/v) in a buffer containing 250 mM sucrose, 1 mM EDTA, 5 mM DTT and 50 mM Tris-HCl (pH 7.5). After a 100,000×g centrifugation for […], the liver microsome pellet was suspended in a buffer containing 100 mM sodium phosphate, 20% glycerol, 2 mM DTT, and stored at −78° C. Human SCD1 desaturase system was reconstituted using human SCD1 from a baculovirus/Sf9 expression system, cytochrome B5 and cytochrome B5 reductase. Typically, test compound in 2 μL DMSO was incubated for 15 min at room temperature with 180 μL of the SCD enzyme in a buffer containing 100 mM Tris-HCl (pH 7.5), ATP (5 mM), Coenzyme-A (0.1 mM), Triton X-100 (0.5 mM) and NADH (2 mM). The reaction was initiated by the addition of 20 μL of [^3H]-stearoyl-CoA (final concentration=2 μM, radioactivity concentration=1 μCi/mL). After 10 min, the reaction mixture (80 μL) was mixed with a calcium chloride/charcoal aqueous suspension (100 μL, charcoal (10% w/v) plus 25 μL, CaCl2 (2N). After centrifugation to precipitate the radioactive fatty acid species, tritiated water released from 9,10-[^3H]-stearoyl-CoA by the SCD enzyme was quantified on a scintillation counter.

Row | Structure (SMILES) | IC50 [µM]
1 | O=C(Nc1ccc2ccccc2c1)c1cnc(N2CC(Oc3cc(F)ccc3Br)C2)cn1 | 0.023
2 | COc1ccc(NC(=O)c2cnc(N3CC(Oc4cc(F)ccc4Br)C3)cn2)cc1 | 0.009
3 | O=C(O)CCc1ccc(NC(=O)c2cnc(N3CC(Oc4cc(F)ccc4Br)C3)cn2)cc1 | 0.045
4 | CS(=O)(=O)c1ccc(NC(=O)c2cnc(N3CC(Oc4cc(F)ccc4Br)C3)cn2)cc1 | 0.011

The remaining compounds from weak to strong by IC50, led by results:

Row | IC50 [µM] | Structure (SMILES)
5 | 0.045 | CNC(=O)c1cnc(N2CC(Oc3cc(F)ccc3Br)C2)cn1
6 | 0.029 | O=C(Nc1ccccc1)c1cnc(N2CC(Oc3cc(F)ccc3Br)C2)cn1
7 | 0.024 | O=C(Nc1ccsc1)c1cnc(N2CC(Oc3cc(F)ccc3Br)C2)cn1
8 | 0.016 | O=C(Nc1ccc(-c2cc[nH]n2)cc1)c1cnc(N2CC(Oc3cc(F)ccc3Br)C2)cn1
